Legend:
[1] = In vitro metabolic stability, human liver microsome; assay type: in vitro ADME; conditions: liver microsomes, 1 mg/mL liver microsome protein, 37° C., NA = essentially not metabolized, read-out: T1/2 in human liver microsome
Experimental: (§1) The in vitro metabolic stability of the compounds disclosed herein was determined through incubation of liver microsomes of various species. […] At each time point, 100 μL of the reaction mixture was added into a centrifuge tube containing 400 μL of internal standard working solution (containing a 200 ng/mL solution of dexamethasone, diclofenac, tolbutamide and labetalol in acetonitrile) precooled at 0° C. so as to terminate the reaction, and the mixture was then centrifuged at 10,000 g for 10 min at 4° C. The supernatant was collected for LC-MS assay so as to obtain the values of in vitro metabolic half-life of the test compounds in liver microsomes of various species.

[2] = target: hP2X3 (human purinergic P2X receptor subtype 3) (Homo sapiens (Human), UniProt P56373); assay: FLIPR calcium assay, hP2X3 expressed in HEK293 cells; assay type: cell-based; conditions: read-out: P2X3 IC50
[3] = In vitro metabolic stability, rat liver microsome; assay type: in vitro ADME; conditions: liver microsomes, 1 mg/mL liver microsome protein, 37° C., NA = essentially not metabolized, read-out: T1/2 in rat liver microsome
Experimental: as §1

[4] = In vitro metabolic stability, guinea pig liver microsome; assay type: in vitro ADME; conditions: liver microsomes, 1 mg/mL liver microsome protein, 37° C., NA = essentially not metabolized, read-out: T1/2 in guinea pig liver microsome
Experimental: The in vitro metabolic stability of the compounds disclosed herein was determined through incubation of liver microsomes of various species. A proper amount of test compound was added into a liver microsome reaction system (1 mg/mL liver microsome protein, 25 U/mL glucose-6 phosphate dehydrogenase, 1 mM NADP, 6 mM D-glucose 6-phosphate and 5 mM MgCl2), and then the mixture was incubated in a water bath kettle at 37° C. to start the reaction. At each time point, 100 μL of the reaction mixture was added into a centrifuge tube containing 400 μL of internal standard working solution (containing a 200 ng/mL solution of dexamethasone, diclofenac, tolbutamide and labetalol in acetonitrile) precooled at 0° C. so as to terminate the reaction, and the mixture was then centrifuged at 10,000 g for 10 min at 4° C. The supernatant was collected for LC-MS assay so as to obtain the values of in vitro metabolic half-life of the test compounds in liver microsomes of various species.

[5] = In vitro cytotoxicity assay, CCK-8 method; assay type: cell-based; conditions: human, HepG2 cells
Experimental: In vitro cytotoxicity assay for the compounds disclosed herein was performed in HepG2 cells using the CCK-8 method. HepG2 cells (Beina Bio) in the logarithmic growth phase were collected, the concentration of cell suspension was adjusted, and then the cells were plated on a 96-well cell culture plate at 50,000 cells/well. The cells were then incubated overnight in a cell incubator of 5% […] at 37° C., and after 80-90% cell confluence was achieved, test compounds or vehicle (DMSO) at various concentration gradients were added after medium change. The plate was incubated in a cell incubator of 5% […] at 37° C. for 48 h. After the treatment, the medium in the plate was discarded. The plate was washed twice with PBS, added with CCK-8 working solution (Beyotime) at 100 μL per well, and then incubated at 37° C. for 1.5 h away from light. Absorbance at OD450nm was measured for each well on a microplate reader, and CC50 value of each compound was analyzed and calculated.

[6] = target: hP2X2/3 (heterodimeric receptors formed by human purinergic P2X receptors subtype 2 and subtype 3) (Homo sapiens (Human), UniProt P56373+Q9UBL9); assay: FLIPR calcium assay, hP2X2/3 expressed in HEK293 cells (P2X2/3 receptor selectivity); assay type: cell-based; conditions: for IC50: HEK293 cells expressing hP2X2/3, agonist BZ-ATP 5 μM, unit inferred
Chain of hP2X2/3 (heterodimeric receptors formed by human purinergic P2X receptors subtype 2 and subtype 3) (P56373 whole entry): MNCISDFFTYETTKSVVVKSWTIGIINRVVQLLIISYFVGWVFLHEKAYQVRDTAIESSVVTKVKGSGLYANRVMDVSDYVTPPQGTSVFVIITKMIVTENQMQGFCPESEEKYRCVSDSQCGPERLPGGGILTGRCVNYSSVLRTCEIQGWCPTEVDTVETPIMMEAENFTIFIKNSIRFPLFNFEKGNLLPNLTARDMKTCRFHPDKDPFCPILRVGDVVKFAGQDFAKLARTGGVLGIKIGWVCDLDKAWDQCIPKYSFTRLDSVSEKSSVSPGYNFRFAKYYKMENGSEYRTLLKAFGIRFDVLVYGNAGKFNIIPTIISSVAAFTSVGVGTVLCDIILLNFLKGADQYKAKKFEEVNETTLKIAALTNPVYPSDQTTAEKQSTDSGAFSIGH
Chain of hP2X2/3 (heterodimeric receptors formed by human purinergic P2X receptors subtype 2 and subtype 3) (Q9UBL9 whole entry): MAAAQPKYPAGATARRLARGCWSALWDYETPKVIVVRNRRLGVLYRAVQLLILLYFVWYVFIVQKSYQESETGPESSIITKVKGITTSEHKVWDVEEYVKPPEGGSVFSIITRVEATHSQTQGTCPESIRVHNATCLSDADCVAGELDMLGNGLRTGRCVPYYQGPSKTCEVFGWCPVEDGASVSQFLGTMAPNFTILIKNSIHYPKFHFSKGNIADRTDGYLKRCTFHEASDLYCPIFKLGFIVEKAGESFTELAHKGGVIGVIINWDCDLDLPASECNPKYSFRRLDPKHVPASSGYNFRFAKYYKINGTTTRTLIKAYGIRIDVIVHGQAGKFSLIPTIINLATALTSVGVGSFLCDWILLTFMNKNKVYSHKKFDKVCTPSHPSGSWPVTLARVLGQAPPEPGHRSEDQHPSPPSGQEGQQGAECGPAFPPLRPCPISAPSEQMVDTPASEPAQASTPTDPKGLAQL

Chain of hP2X3 (human purinergic P2X receptor subtype 3) (P56373 whole entry): as the sequence (P56373 whole entry) above

Row | SMILES | half-life [1] [min] | IC50 [2] [µM] | half-life [3] [min] | half-life [4] [min] | CC50 at 48 h [5] [µM] | Folds of selectivity [6] | IC50 [6] [µM]
1 | COC(=O)N1CCO[C@@H](Cc2c(-c3c(F)cc(-c4cc[nH]n4)cc3F)nc3cc(C)ccn23)C1 [Compound 15, methyl (S)-2-((2-(2,6-difluoro-4-(1H-pyrazol-3-yl)phenyl)-7-methylimidazo[1,2-a]pyridin-3-yl)methyl)morpholine-4-carboxylate] | 191 | < 0.01 | 25.4 | 16.5 | 52.6 | B (key: A: folds of selectivity >1000; B: 200< folds of selectivity ≤1000; C: folds of selectivity ≤200) | 21.6
2 | COC(=O)N1CCO[C@@H](Cc2c(-c3c(F)cc(S(N)(=O)=O)cc3F)nc3cc(C)ccn23)C1 [Compound 171, methyl (S)-2-((2-(2,6-difluoro-4-sulfamoylphenyl)-7-methylimidazo[1,2-a]pyridin-3-yl)methyl)morpholine-4-carboxylate] | 523 | 0.0021 | 8.48 | 140 | 200 | 45975 | 36.8
3 | COC(=O)N1CCO[C@@H](Cc2c(-c3c(F)cc(-c4ccc[nH]4)cc3F)nc3cc(C)ccn23)C1 [Compound 4, methyl (S)-2-((2-(2,6-difluoro-4-(1H-pyrrol-2-yl)phenyl)-7-methylimidazo[1,2-a]pyridin-3-yl)methyl)morpholine-4-carboxylate] | 61 | < 0.01 | 4.91 | 4.38 | 13.2 | A (key: A: folds of selectivity >1000; B: 200< folds of selectivity ≤1000; C: folds of selectivity ≤200) | 14.3
4 | COC(=O)N1CCO[C@@H](Cc2c(-c3c(F)cc(-c4ccccn4)cc3F)nc3cc(C)ccn23)C1 [Compound 17, methyl (S)-2-((2-(2,6-difluoro-4-(pyridin-2-yl)phenyl)-7-methylimidazo[1,2-a]pyridin-3-yl)methyl)morpholine-4-carboxylate] | 998 | 0.01 to 0.05 | 19.4 | 8.61 | 51 | B (key: A: folds of selectivity >1000; B: 200< folds of selectivity ≤1000; C: folds of selectivity ≤200) | 29.8
5 | COC(=O)N1CCO[C@@H](Cc2c(-c3c(F)cc(N4CC=CC4=O)cc3F)nc3cc(C)ccn23)C1 [Compound 169, methyl (S)-2-((2-(2,6-difluoro-4-(2-carbonyl-2,5-dihydro-1H-pyrrol-1-yl)phenyl)-7-methylimidazo[1,2-a]pyridin-3-yl)methyl)morpholine-4-carboxylate] | 828 |  | 35.5 | 164 | > 100 | A (key: A: folds of selectivity >1000; B: 200< folds of selectivity ≤1000; C: folds of selectivity ≤200) | > 60
6 | COC(=O)Nc1cc(F)c(-c2nc3cc(C)ccn3c2C[C@H]2CN(C(=O)OC)CCO2)c(F)c1 [Compound 3, methyl (S)-2-((2-(2,6-difluoro-4-(methoxycarbonylamino)phenyl)-7-methylimidazo[1,2-a]pyridin-3-yl)-methyl)morpholine-4-carboxylate] | 260 | 0.01 to 0.05 | 28.7 | 50.5 | 59.3 | A (key: A: folds of selectivity >1000; B: 200< folds of selectivity ≤1000; C: folds of selectivity ≤200) | > 60
7 | COC(=O)N1CCO[C@@H](Cc2c(-c3cnc(-n4cccn4)cc3C)nc3cc(C)ccn23)C1 [Compound 168, methyl (S)-2-((7-methyl-2-(4-methyl-6-(1H-pyrazol-1-yl)pyridin-3-yl)imidazo[1,2-a]pyridin-3-yl)methyl)morpholine-4-carboxylate] | 523 | 0.01 to 0.05 | 57.6 | 29.2 | > 100 | A (key: A: folds of selectivity >1000; B: 200< folds of selectivity ≤1000; C: folds of selectivity ≤200) | > 60
